Test [1] has as its target recombinant human kappa opioid receptor (κ) (Homo sapiens (Human), UniProt P41145). The test is described as follows: κ-opioid receptor radioligand binding assay ([3H]-U69,593). Particulars: binding affinity.
The next test has as its target μ-opioid receptor (Homo sapiens (Human), UniProt P35372). The test is described as follows: μ-opioid receptor [35S]GTPγS functional assay, HEK-293 or CHO cells (Table 4). Format: biochemical. A digest of the protocol: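 Membranes from HEK-293, CHO or U-2 OS cells (or commercial) expressing recombinant μ receptor; 0.20 nM [35S]GTPγS, 3 mM GDP, saponin, in 100 mM NaCl/10 mM MgCl2/20 mM HEPES pH 7.4.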
Background: GTPγS resists hydrolysis and so accumulates on activated G proteins.

For test [2], the target named is T1, κ-opioid receptor (Homo sapiens (Human), UniProt P41145). The test is described as follows: κ-opioid receptor [35S]GTPγS functional assay, HEK-293 or CHO cells (Table 4). Format: biochemical.
Test [3] concerns the target T1, κ-opioid receptor. The test is described as follows: κ-opioid receptor [35S]GTPγS functional assay, U-2 OS cells (Table 5). Format: biochemical. The essentials:
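[35S]GTPγS binding in κ receptor membranes (0.026 μg/μl protein) with 10 μg/mL saponin, 3 μM GDP and 0.20 nM [35S]GTPγS in pH 7.4 HEPES/NaCl/MgCl2 buffer. Agonist incubation lasted 30 min at about 25 °C, followed by filtration and scintillation counting. Emax is expressed relative to U69,593.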

One may read the Ki as the dissociation constant of the complex between target and ligand, obtained from inhibition or displacement. For orientation: Emax means the size of the effect at its maximum, as opposed to the concentration needed. By EC50 is commonly meant the midpoint of the concentration-response curve. A lower EC50 goes with higher potency in that assay. With `NC(=O)[C@@H]1C[C@]23CCN(CC4CC4)[C@H](Cc4ccc(O)cc42)[C@]3(O)C1` [Compound 31, (2R,3aS,4R,9bS)-12-(cyclopropylmethyl)-3a,8-dihydroxy-1,2,3,3a,4,5-hexahydro-4,9b-(epiminoethano)cyclopenta-[a]naphthalene-2-carboxamide], the Ki in test [1] was 0.84 ± 0.26 nM. Also, the Emax was 1% on μ-opioid receptor (relative to DAMGO), 35.3 ± 2.19% at κ-opioid receptor [2] (relative to U69,593) and 87.5 ± 5.04% on κ-opioid receptor [3] (relative to U69,593). Besides, the EC50 was > 20 µM at μ-opioid receptor (μ GTP, bound given in μM); 6.95 ± 0.97 nM at κ-opioid receptor [2] (κ GTP); 2.62 ± 0.024 nM on κ-opioid receptor [3] (κ GTP).

The values above are taken from patent US9656962B2, “Ring-contracted morphinans and the use thereof” (Purdue Pharma L.P., priority 2013, dated 2017).
